According to US20040086901A1, “Database for analyzing gene function and method of analyzing gene function by dspa” (priority 2000, published 2004):

Assays:
Format in all cases: cell-based, mouse
[1] = test system: NIH3T3 cells overexpressing caspase-1; assay: MTT cell viability, caspase-1 overexpressing cells vs parental line; conditions: caspase-1 high-expressing cells / parental cell line, 3 to 4 days
Procedure, shortened: (§1)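 MTT viability of transfected versus parental NIH3T3 after 3–4 days in twofold drug dilution series; values are log ratios of IC40.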

[2] = test system: NIH3T3 cells overexpressing TK; assay: MTT cell viability, TK overexpressing cells vs parental line; conditions: TK high-expressing cells / parental cell line, 3 to 4 days
Procedure, shortened: (§2)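 Stable NIH3T3 transfectants (cDNA in pRc-CMV-type vector, G-418-selected, high expressers picked by Western blot) and parental cells were seeded at 1×10^5 cells/ml into twofold serial drug dilutions and grown 3–4 days. MTT formazan was read at 574/655 nm, and log ratios of IC40 values were derived.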

[3] = test system: NIH3T3 cells overexpressing m-calpain; assay: MTT cell viability, m-calpain overexpressing cells vs parental line; conditions: m-calpain high-expressing cells / parental cell line, 3 to 4 days
Procedure, shortened: as §1

[4] = test system: NIH3T3 cells overexpressing CBP8; assay: MTT cell viability, CBP8 overexpressing cells vs parental line; conditions: CBP8 high-expressing cells / parental cell line, 3 to 4 days
Procedure, shortened: as §2

[5] = test system: NIH3T3 cells overexpressing v-src; assay: MTT cell viability, v-src overexpressing cells vs parental line; conditions: v-src high-expressing cells / parental cell line, 3 to 4 days
Procedure, shortened: as §2

[6] = test system: NIH3T3 cells overexpressing RhoA; assay: MTT cell viability, RhoA overexpressing cells vs parental line; conditions: RhoA high-expressing cells / parental cell line, 3 to 4 days
Procedure, shortened: as §2

[7] = test system: NIH3T3 cells overexpressing JNK-DN; assay: MTT cell viability, JNK-DN overexpressing cells vs parental line; conditions: JNK-DN high-expressing cells / parental cell line, 3 to 4 days
Procedure, shortened: as §2

[8] = test system: NIH3T3 cells overexpressing STAT1; assay: MTT cell viability, STAT1 overexpressing cells vs parental line; conditions: STAT1 high-expressing cells / parental cell line, 3 to 4 days
Procedure, shortened: as §1

[9] = test system: NIH3T3 cells overexpressing calpastatin; assay: MTT cell viability, calpastatin overexpressing cells vs parental line; conditions: calpastatin high-expressing cells / parental cell line, 3 to 4 days
Procedure, shortened: as §2

[10] = test system: NIH3T3 cells overexpressing cAMP-PK-CS; assay: MTT cell viability, cAMP-PK-CS overexpressing cells vs parental line; conditions: cAMP-PK-CS high-expressing cells / parental cell line, 3 to 4 days
Procedure, shortened: as §1

[11] = test system: NIH3T3 cells overexpressing HNF1; assay: MTT cell viability, HNF1 overexpressing cells vs parental line; conditions: HNF1 high-expressing cells / parental cell line, 3 to 4 days
Procedure, shortened: as §1

[12] = test system: NIH3T3 cells overexpressing N-ras; assay: MTT cell viability, N-ras overexpressing cells vs parental line; conditions: N-ras high-expressing cells / parental cell line, 3 to 4 days
Procedure, shortened: as §2

[13] = test system: NIH3T3 cells overexpressing cystatin E; assay: MTT cell viability, cystatin E overexpressing cells vs parental line; conditions: cystatin E high-expressing cells / parental cell line, 3 to 4 days
Procedure, shortened: as §2

[14] = test system: NIH3T3 cells overexpressing cystatin alpha; assay: MTT cell viability, cystatin alpha overexpressing cells vs parental line; conditions: cystatin alpha high-expressing cells / parental cell line, 3 to 4 days
Procedure, shortened: as §2

[15] = test system: NIH3T3 cells overexpressing PKCalpha-KN; assay: MTT cell viability, PKCalpha-KN overexpressing cells vs parental line; conditions: 3 to 4 days
Procedure, shortened: as §1

[16] = test system: NIH3T3 cells overexpressing CaMKIIa; assay: MTT cell viability, CaMKIIa overexpressing cells vs parental line; conditions: CaMKIIa high-expressing cells / parental cell line, 3 to 4 days
Procedure, shortened: as §1

[17] = test system: NIH3T3 cells overexpressing PDGF-R; assay: MTT cell viability, PDGF-R overexpressing cells vs parental line; conditions: PDGF-R high-expressing cells / parental cell line, 3 to 4 days
Procedure, shortened: as §2

[18] = test system: NIH3T3 cells overexpressing caspase-2; assay: MTT cell viability, caspase-2 overexpressing cells vs parental line; conditions: caspase-2 high-expressing cells / parental cell line, 3 to 4 days
Procedure, shortened: as §2

[19] = test system: NIH3T3 cells overexpressing Ki-ras; assay: MTT cell viability, Ki-ras overexpressing cells vs parental line; conditions: Ki-ras high-expressing cells / parental cell line, 3 to 4 days
Procedure, shortened: as §2

[20] = test system: NIH3T3 cells overexpressing Regucalcin; assay: MTT cell viability, Regucalcin overexpressing cells vs parental line; conditions: Regucalcin high-expressing cells / parental cell line, 3 to 4 days
Procedure, shortened: as §2

[21] = PKCalpha-KN (first of two lines) high-expressing cells / parental cell line
[22] = PKCalpha-KN (second of two lines) high-expressing cells / parental cell line

SMILES | logarithmic value of ratio of IC40 values [1] | logarithmic value of ratio of IC40 values [2] | logarithmic value of ratio of IC40 values [3] | logarithmic value of ratio of IC40 values [4] | logarithmic value of ratio of IC40 values [5] | logarithmic value of ratio of IC40 values [6] | logarithmic value of ratio of IC40 values [7] | logarithmic value of ratio of IC40 values [8] | logarithmic value of ratio of IC40 values [9] | logarithmic value of ratio of IC40 values [10] | logarithmic value of ratio of IC40 values [11] | logarithmic value of ratio of IC40 values [12] | logarithmic value of ratio of IC40 values [13] | logarithmic value of ratio of IC40 values [14] | logarithmic value of ratio of IC40 values [15, 21] | logarithmic value of ratio of IC40 values [15, 22] | logarithmic value of ratio of IC40 values [16] | logarithmic value of ratio of IC40 values [17] | logarithmic value of ratio of IC40 values [18] | logarithmic value of ratio of IC40 values [19] | other results
O=[As]O [NaAsO2, sodium arsenite] | −0.21 | 0.18 | −0.16 | 0.21 | 0.11 | 0.07 | −0.07 | 0.16 | 0 | 0.07 | −0.14 | −0.19 | 0.15 | −0.05 | 0.16 | 0.22 | 0.00 | 0.14 | 0.18 | 0.08 | logarithmic value of ratio of IC40 values [20]: 0.03
C=C1[C@@H](O)[C@@H]2O[C@]3(CC[C@H](/C=C/[C@@H](C)[C@@H]4CC(C)=C[C@@]5(O[C@H](C[C@@](C)(O)C(=O)O)CC[C@H]5O)O4)O3)CC[C@H]2O[C@@H]1[C@@H](O)C[C@H](C)[C@H]1O[C@@]2(CCCCO2)CC[C@H]1C [OA, okadaic acid] | 0.00 | 0.00 | −0.08 | 0.12 | 0.18 | 0.00 | −0.07 | 0.14 | −0.04 | 0.08 | 0 | 0.00 | −0.52 | 0.08 | 0.09 | 0.00 | 0.00 | 0.16 | 0.06 | 0.04 | logarithmic value of ratio of IC40 values [20]: −0.10
C[C@@H]1O[C@@H](O[C@H]2C[C@@H](O)[C@]3(CO)[C@H]4[C@H](O)C[C@]5(C)[C@@H](C6=CC(=O)OC6)CC[C@]5(O)[C@@H]4CC[C@]3(O)C2)[C@H](O)[C@H](O)[C@H]1O [Ouabain, ouabain] | 1.26 | 0.00 | 0.05 | 0.58 | 0.00 | 0.15 | −0.08 | 0.04 | −0.3 | 0.00 | 0.103 | 0.56 | 0.49 | 1.28 | 0.00 | 0.06 | 0.23 | 0.34 | −0.05 | 0.18 | logarithmic value of ratio of IC40 values [20]: −0.12
C=CC1=C(C)c2cc3[n-]c(cc4nc(cc5[n-]c(cc1n2)c(C)c5CCC(=O)O)C(CCC(=O)O)=C4C)c(C)c3C=C.[Cl-].[Cl-].[Sn+4] [SnPP] | −0.15 | 0.00 | −0.07 | 0.56 | −0.17 | 0.14 | −0.11 | 0.08 | 0.486 | 0.02 | 0.138 | 0.14 | 0.11 | 0.00 | −0.14 | 0.00 | 0.24 | −0.07 | −0.33 | 0.18 | logarithmic value of ratio of IC40 values [20]: 0.32
C/C=C(/C)C(=O)O[C@H]1C(C)=C2[C@H]([C@@H]1OC(=O)CCCCCCC)[C@@](C)(OC(C)=O)C[C@H](OC(=O)CCC)[C@@]1(O)[C@H]2OC(=O)[C@@]1(C)O [Thapsigargin, thapsigargin] | −0.30 | 0.06 | 0.05 | 0.12 | 0.32 | 0.26 | 0.24 | 0.30 | 0.046 | 0.05 | 0.16 | 0.08 | 0.00 | 0.04 | 0.10 | 0.12 | 0.09 | 0.29 | −0.07 | −0.05 | logarithmic value of ratio of IC40 values [20]: 0.20
COc1ccc2c(c1)CC[C@@H]1[C@@H]2CC[C@]2(C)[C@@H](NCCCCCCN3C(=O)C=CC3=O)CC[C@@H]12 [U73122] | 0.53 | 0.00 | −0.14 | 0.18 | −0.59 | 0.12 | −0.07 | 0.18 | −0.313 | −0.18 | 0.07 | −0.54 | −0.07 | 0.04 | −0.33 | −0.97 | −0.05 | −0.11 | −0.02 | −0.60 | logarithmic value of ratio of IC40 values [20]: −0.66
